Measured values: article PMC9562916, “Investigation of the Phenolic Component Bioavailability Using the In Vitro Digestion/Caco-2 Cell Model, as well as the Antioxidant Activity in Chinese Red Wine” (Foods, 2022)
Read-outs that look alike come from different tables or passages of the source. Marks after values point to notes of the source that are not given here.

How the values were obtained:
[1] = Caco-2 transepithelial transport assay of digested red wine; type: in vitro ADME, human; conditions: human, Caco-2, apical to basolateral
Description: (§1) Caco-2 cells were inoculated following the method of Hubatsch et al. […] Briefly, a 5% v/v of CO2 incubator at 37 °C was used to house the cells. […] Caco-2 cells were sub-cultured when they reached 80-90% of the adherent growth by treating them with a 0.05% v/v of trypsin-EDTA solution. The culture between passages 35 and 40 was used for the following experiment. Transport experiments were performed according to the method of Wu et al. with slight modifications. First, 1.0 × 10^5 Caco-2 cells were inoculated onto 12 mm transparent cell culture plates (Transwell). Media were carefully injected into the apical (0.5 mL) and basolateral (1.5 mL) sides of the Transwell plates. The cell culture medium had to be replaced every other day until the cells formed a monolayer. The integrity and transport ability of the Caco-2 cell monolayer were evaluated by measuring the trans-epithelial electrical resistance (TEER) with a MilliCell voltammeter (Millicell ERS-2, Merck Millipore, Billerica, MA, USA). […] When the cell activity exceeded 0.9, a transport experiment was conducted. The apical side was injected with a digested red wine sample (0.5 mL) and was thoroughly mixed with […] Balanced Salt Solution (HBSS) buffer solution. […] The cells were then cultured in a 37 °C, 5% CO2 incubator. Then, 0.25 mL samples were separately taken from the basolateral side of the monolayer. An equal volume of HBSS buffer was then added every half hour from the beginning of the culture until the end of the culture at 6 h. The collected samples were subsequently filtered and placed in the sample bottle for further HPLC analysis. This experiment was repeated several times to collect enough samples for the next antioxidant test. […] The Agilent 1100 series HPLC instrument was used; it was equipped with a degasser, quaternary pump solvent delivery, a DAD system, and a single quadrupole mass detector coupled with an electrospray ionization LC-MS interface. […] The column temperature was kept at 30 °C, the injection volume was 10 μL, and the flow rate was 0.3 mL/min. The eluents were water and formic acid in a 99:1 (v/v) (A) ratio and 100% acetonitrile (B). The gradient elution procedure was as follows: (1) 3% B solvent at 0 min, (2) 3 to 16% B solvent at 10 min, (3) 16 to 20% B solvent at 30 min, and (4) 20% B solvent maintained until the procedure was completed. The MS configuration was as follows: ESI, negative ion mode, nebulizer pressure of 30 psi, a dry gas flow rate of 10 mL/min, dry gas temperature of 350 °C, and a scan rate of 100~1200 m/z. PCs were determined according to their retention times, UV/VIS spectra, and high-resolution MS spectra, in addition to a comparison with the standards. […] If a standard was unavailable, a structurally related compound was used. Putative annotations were made using spectral features and literature information on the chromatographic properties and mass spectra records from the metabolome database. A standard curve was drawn using methanol solutions with different concentrations as the standards. […] PCs All of the samples were determined in triplicate.

[2] = PC content of red wine before and after in vitro simulated gastrointestinal digestion (HPLC); type: in vitro ADME
Description: The digestion procedure was carried out by adapting the method of Brodkorb et al. and Gómez et al.. […] One milliliter (50 units/mL) of porcine amylase was prepared in a 15 mM Na₃PO₄ buffer solution (pH adjusted to 6.8) containing 1.5 mM CaCl2, and it was added to the red wine solution. After 5 min, 4.5 mL of 0.12 M HCl was added to the mixture to adjust the pH to 2.4. One milliliter of porcine pepsin (0.02 mg/L) was dissolved in a 20 mM HCl solution. The mixture was then maintained at 37 °C for 120 min. The digestion mixture was then centrifuged at 8000× g for 15 min to obtain samples from the gastric digestion phase. […] The mixture was incubated at pH 6.5 at 37 °C for 3 h before being centrifuged. The extracts of the intestinal phase were the supernatants. The same operation was done three times, and each sample was stored in a refrigerator (−20 °C) immediately for further analysis.
The Pati method was adopted, with slight modifications, to measure the content of the PCs. The Agilent 1100 series HPLC instrument was used; it was equipped with a degasser, quaternary pump solvent delivery, a DAD system, and a single quadrupole mass detector coupled with an electrospray ionization LC–MS interface. Briefly, th samples were injected into a Zorbax SB C18 reversed-phase column (5 µm,150 × 2.1 mm, Agilent Technologies, Santa Clara, CA, USA) using an autosampler after filtering through 0.45 µm cellulose acetate syringe filters. The column temperature was kept at 30 °C, the injection volume was 10 µL, and the flow rate was 0.3 mL/min. The eluents were water and formic acid in a 99:1 (v/v) (A) ratio and 100% acetonitrile (B). […] The MS configuration was as follows: ESI, negative ion mode, nebulizer pressure of 30 psi, a dry gas flow rate of 10 mL/min, dry gas temperature of 350 °C, and a scan rate of 100~1200 m/z. PCs were determined according to their retention times, UV/VIS spectra, and high-resolution MS spectra, in addition to a comparison with the standards. […] Putative annotations were made using spectral features and literature information on the chromatographic properties and mass spectra records from the metabolome database. A standard curve was drawn using methanol solutions with different concentrations as the standards. The limits of detection and quantitation were calculated according to the signal-to-noise ratio (limit of detection: signal-to-noise ratio ≥ 3; limit of quantitation: signal-to-noise ratio ≥ 10). […] PCs All of the samples were determined in triplicate.

Caco-2 cell monolayer = assay: Caco-2 transepithelial transport assay of digested red wine; type: in vitro ADME, human
Description: as §1

[3] = Cabernet red wine, after simulated gastrointestinal digestion
[4] = Helanshan red wine, after simulated gastrointestinal digestion
[5] = Tianzhu red wine, after simulated gastrointestinal digestion
[6] = Cabernet red wine, digested sample, basolateral side of Caco-2 monolayer
[7] = Helanshan red wine, digested sample, basolateral side of Caco-2 monolayer
[8] = Tianzhu red wine, digested sample, basolateral side of Caco-2 monolayer
[9] = apical to basolateral, digested Helanshan red wine
[10] = apical to basolateral, digested Tianzhu red wine
[11] = apical to basolateral, digested Cabernet red wine

| Compound | PC Contents, Cabernet, After Digestion [2, 3] | PC Contents, Helanshan, After Digestion [2, 4] | PC Contents, Tianzhu, After Digestion [2, 5] | PC Contents, Cabernet, Transmembrane (Caco-2 cell monolayer; [6]) | PC Contents, Helanshan, Transmembrane (Caco-2 cell monolayer; [7]) | PC Contents, Tianzhu, Transmembrane (Caco-2 cell monolayer; [8]) | Apparent Permeability Coefficients, Helanshan (Caco-2 cell monolayer; [9]) | Apparent Permeability Coefficients, Tianzhu (Caco-2 cell monolayer; [10]) | PC Contents, Cabernet, After Digestion [2] | PC Contents, Helanshan, After Digestion [2] | PC Contents, Tianzhu, After Digestion [2] | Apparent Permeability Coefficients, Cabernet (Caco-2 cell monolayer; Caco-2) | Apparent Permeability Coefficients, Helanshan (Caco-2 cell monolayer; Caco-2) | Apparent Permeability Coefficients, Tianzhu (Caco-2 cell monolayer; Caco-2) | PC Contents, Cabernet, Transmembrane (Caco-2 cell monolayer; Caco-2) | PC Contents, Helanshan, Transmembrane (Caco-2 cell monolayer; Caco-2) | PC Contents, Tianzhu, Transmembrane (Caco-2 cell monolayer; Caco-2) | further results |
| --- | --- | --- | --- | --- | --- | --- | --- | --- | --- | --- | --- | --- | --- | --- | --- | --- | --- | --- |
| Oc1cc(O)c2c(c1)O[C@H](c1ccc(O)c(O)c1)[C@H](O)C2 [Epicatechin] | – | – | – | – | – | – | – | – | – | – | – | – | – | – | – | – | – | Papp at 6 h ([1]; digested Cabernet red wine, read-out: Apparent Permeability Coefficients, Cabernet): 11.4 ± 1.77 ×10⁻⁶ cm/s; Papp at 6 h ([1]; digested Helanshan red wine, read-out: Apparent Permeability Coefficients, Helanshan): 11.5 ± 1.53 ×10⁻⁶ cm/s; Papp at 6 h ([1]; digested Tianzhu red wine, read-out: Apparent Permeability Coefficients, Tianzhu): 11.4 ± 1.46 ×10⁻⁶ cm/s |
| COc1cc(-c2[o+]c3cc(O)cc(O)c3cc2O[C@@H]2O[C@H](CO)[C@@H](O)[C@H](O)[C@H]2O)cc(OC)c1O [Malvidin-3-glc, malvidin-3-glucoside] | 153.43 ± 5.83 ^b mg/L | 88.2 ± 3.97 ^b mg/L | 103.8 ± 5.71 ^b mg/L | 62.38 ± 3.24 ^a mg/L | 35.55 ± 1.46 ^a mg/L | 20.68 ± 1.05 ^a mg/L | 25.19 ± 3.99 ^a ×10^−6 cm/s | 25.37 ± 4.11 ^a ×10^−6 cm/s | – | – | – | – | – | – | – | – | – | – |
| O=c1c(OC2O[C@H](CO)[C@@H](O)[C@H](O)[C@H]2O)c(-c2cc(O)c(O)c(O)c2)oc2cc(O)cc(O)c12 (some centres unmarked) [Myricetin-3-glc] | 36.91 ± 1.10 ^b mg/L | 28.45 ± 1.51 ^b mg/L | 43.22 ± 1.34 ^b mg/L | 0.81 ± 0.04 ^a mg/L | 0.64 ± 0.02 ^a mg/L | 8.61 ± 0.43 ^a mg/L | 1.41 ± 0.21 ^a ×10^−6 cm/s | 1.35 ± 0.19 ^a ×10^−6 cm/s | – | – | – | – | – | – | – | – | – | Apparent Permeability Coefficients, Cabernet (Caco-2 cell monolayer; [11]): 1.38 ± 0.17 ^a ×10^−6 cm/s |
| COc1cc(-c2[o+]c3cc(O)cc(O)c3cc2OC2OC(COC(C)=O)C(O)C(O)C2O)cc(O)c1O (centres unmarked) [Petunidin-3-acglc] | – | – | – | – | – | – | – | – | 1.05 ± 0.05 ^b mg/L | 0.98 ± 0.05 ^b mg/L | 1.17 ± 0.04 ^b mg/L | 11.53 ± 2.01 ^a ×10^−6 cm/s | 11.78 ± 2.11 ^a ×10^−6 cm/s | 11.46 ± 2.05 ^a ×10^−6 cm/s | 0.19 ± 0.008 ^a mg/L | 0.18 ± 0.005 ^a mg/L | 0.23 ± 0.008 ^a mg/L | – |
| COc1cc(-c2[o+]c3cc(O)cc(O)c3cc2O[C@@H]2O[C@H](CO)[C@@H](O)[C@H](O)[C@H]2O)cc(O)c1O [Petunidin-3-glc] | – | – | – | – | – | – | – | – | 5.79 ± 0.27 ^b mg/L | 4.98 ± 0.19 ^b mg/L | 5.33 ± 0.21 ^b mg/L | 16.89 ± 2.96 ^a ×10^−6 cm/s | 17.56 ± 3.32 ^a ×10^−6 cm/s | 17.13 ± 3.01 ^a ×10^−6 cm/s | 1.56 ± 0.07 ^a mg/L | 1.40 ± 0.05 ^a mg/L | 1.06 ± 0.04 ^a mg/L | – |
| O=c1c(O[C@@H]2O[C@H](CO)[C@@H](O)[C@H](O)[C@H]2O)c(-c2ccc(O)c(O)c2)oc2cc(O)cc(O)c12 [Quercetin-3-glc] | 202.22 ± 10.52 ^b mg/L | 145.43 ± 5.38 ^b mg/L | 188.45 ± 8.29 ^b mg/L | 7.47 ± 0.23 ^a mg/L | 5.10 ± 0.28 ^a mg/L | 37.54 ± 1.95 ^a mg/L | 2.19 ± 0.26 ^a ×10^−6 cm/s | 2.23 ± 0.22 ^a ×10^−6 cm/s | – | – | – | – | – | – | – | – | – | Apparent Permeability Coefficients, Cabernet (Caco-2 cell monolayer; [11]): 2.31 ± 0.27 ^a ×10^−6 cm/s |
| COc1cc(-c2oc3cc(O)cc(O)c3c(=O)c2O[C@@H]2O[C@H](CO)[C@@H](O)[C@H](O)[C@H]2O)cc(OC)c1O [Syringetin-3-glc] | – | – | – | – | – | – | – | – | 26.34 ± 0.90 ^b mg/L | 20.17 ± 1.01 ^b mg/L | 30.19 ± 1.03 ^b mg/L | 2.91 ± 0.21 ^a ×10^−6 cm/s | 2.81 ± 0.29 ^a ×10^−6 cm/s | 2.88 ± 0.23 ^a ×10^−6 cm/s | 1.23 ± 0.04 ^a mg/L | 0.91 ± 0.03 ^a mg/L | 6.01 ± 0.22 ^a mg/L | – |
| Procyanidin dimer | – | – | – | – | – | – | – | – | 5.64 ± 0.26 ^b mg/L | 5.98 ± 0.27 ^b mg/L | 7.64 ± 0.32 ^b mg/L | 6.41 ± 1.05 ^a ×10^−6 cm/s | 6.48 ± 0.98 ^a ×10^−6 cm/s | 6.54 ± 0.86 ^a ×10^−6 cm/s | 0.58 ± 0.03 ^a mg/L | 0.62 ± 0.02 ^a mg/L | 1.52 ± 0.08 ^a mg/L | – |
